Test results reported in patent publication US12590130B2, “Bipartite molecules and uses thereof in treating diseases associated with abnormal protein aggregates” (ACADEMIA SINICA, priority 2014, dated 2026).
Square brackets hold non-standard residues; d marks the D form. Ends that are not written are not given here. Peptide text beside a SMILES is read from it. * marks the point of attachment. Cbz = O=C(OCc1ccccc1)*

How the values were obtained:
[1] = Solubility of therapeutic peptides; type: physicochemical
Description: (§1) In this study, the rational design was tested for HD. Several bipartite therapeutic peptides containing 8 consecutive arginines (8R) attached to a stretch of consecutive glutamines (polyQ) were synthesized and their biological activity of decreasing the aggregation propensity of the mHtt protein was investigated. The length of the polyQ of these bipartite peptides was 5 (8R5Q), 10 (8R10Q), 15 (8R15Q) or 20 (8R20Q) (Table 2).

[2] = Stability of therapeutic peptides determined by HPLC; type: physicochemical; conditions: day 0 to day 28
Description: FIG. 2. Stability of the therapeutic peptides determined by HPLC. A: diagrams showing the retention time of the tested peptides from day 0 to day 28. B: charts showing the amount of the tested peptides at day 0 and day 28.
as §1

[3] = system: 109QmHtt aggregates; test: TIRF microscopy of mHtt aggregates in Neuro2a cells; type: cell-based; conditions: Neuro2a cells expressing 109QmHtt
Description: FIG. 3. Diagrams showing the co-localization of tested bipartite peptides with the 109QmHtt aggregates. Panel A: Structure of TAMRA-labeled 8R10Q used in this study. Panel B: Epifluorescence micrographs of Neuro2a cells expressing 109QmHtt treated with TAMRA-8R10Q (8R10Q) at various time points. Note the co-localization of 8R10Q and 109QmHttGFP aggregates (GFP) from 8-24 hours (arrows). Scale bar: 10 μm. Panel C: TIRF micrographs of the Neuro2a expressing 109QmHtt treated with water or peptides as indicated at various time points. Note the decrease in aggregate size in 8R10Q and 8R15Q-treated cells. Panel D: Quantitation of the size of individual aggregates in Neuro2a at 8 hours (left) and 24 hours (right) after peptide treatment. […] Panel E: Quantitation of the number of aggregates in 20 Neuro2a cells at 12 hours (left) and 24 hours (right) after peptide treatment. Both the 8R10Q and 8R15Q increased the number of aggregates. Statistics performed with one way ANOVA. **p<0.01; ***p<0.001.
To probe into the details of the effect of peptide on the mHtt aggregates, the parameters of the mHtt aggregates were visualized and measured using the Total Internal Reflection Fluorescence (TIRF) microscopy. […] The number of aggregates in 20 cells was also calculated. 8R10Q and 8R15Q increased the number of the aggregates by 4-5 fold (FIG. 3, panel E).

[4] = system: 109QmHtt; test: Filter trap assay of aggregated 109QmHtt in Neuro2a cells; type: cell-based
Description: (§2) FIG. 4. Testing the ability of therapeutic peptides to decrease mHtt aggregation in Neuro2a cells overexpressing mHtt. Panel A: Filter trap assays and corresponding quantitation of cells (panel B) treated as indicated at 8 hours (T1), 24 hours (T2), or both (T1+2) after transfection with the 109QmHtt construct. […] Panel C: Western blots and quantitation (panel D) of RIPA-soluble (sol) and -insoluble (ins) fractions of Neuro2a cells overexpressing 25QHtt or 109QmHtt and treated as indicated. […] Panel E: Western blot of the 109QmHtt in cells treated as indicated. Note that MG132 blocked the effect of 8R10Q peptide with respect to decreasing insoluble 109QmHtt. Panel F: Quantitation of ratio of 109QmHtt in cells treated MG132 (+) over DMSO (−) in relationship to peptides. Statistical analysis conducted with one way ANOVA, *<0.05, **<0.01, ***<0.001, ns: not significant.
Whether the peptides could modulate the aggregation propensity of mHtt was next investigated.

[5] = system: Neuro2a cells expressing 109QmHtt; test: Retinoic acid-induced neurite outgrowth; type: cell-based, mouse; conditions: 109QmHtt cells; vs water or scrambled control
Description: FIG. 5. Therapeutic effect of 8R10Q and 8R15Q in 109QmHtt-expressing cells. Panel A: Cell viability assay by MTT in Neuro2a cells expressing 25QHtt (left) or 109QmHtt (right) treated with H2O2 at 50 μM and the indicated peptide. Panel B: Cell growth curve of Neuro2a cells expressing 25QHtt or 109QmHtt treated with indicated peptide. The cells in right subpanel were further treated with H2O2 at 12.5 μM 16 hours after transfection. 109QmHtt cells growth was slower than that of the 25QHtt cells. 8R10Q treatment rescued the slow growth of Neuro2a cells by 109QmHtt with or without H2O2. Panel C: Micrographs of the phase contrast and fluorescent images of retinoic acid-differentiated Neu2a cells expressing GFP-25QHtt or GFP-109QmHtt (GFP) treated with the indicated peptide. Note the neurites of the differentiated cells. Panel D: Quantitation of the percentage of differentiated cells with neurites. Fewer 109QmHtt-expressing cells had neurites vs. 25QHtt-expressing cells. […] The experiments were conducted in triplicate and repeated twice. Statistical analysis was performed with one way ANOVA, *p<0.05; **p<0.01; ***p<0.001, ns: not significant.
Retinoic acid (RA) induced the differentiation of Neuro2a cells with neurite outgrowth. 109QmHtt decreased the number of cells bearing RA-induced neurites relative to 25QHtt (FIG. 5, panels C and D).

[6] = system: Mouse N2a neuroblastoma cells
Description: Cell viability measurement by MTT assays. […] Each bar was generated by a triplicate experiment; the study was repeated 3 times. The statistics were performed with one way ANOVA corrected with Fisher's LSD test. ***: p<0.001; ****p<0.0001; ns, not significant.
Cell viability assay. The viability of mouse N2a cells incubated with the indicated peptide(s) was measured using the MTT assay.
Mouse N2a neuroblastoma cells (ATCC) were cultured in Dulbecco's modified Eagle's medium (DMEM) (HyClone, USA) supplemented with 10% fetal bovine serum (FBS; HyClone, USA) in 5% CO2 at 37° C. For the cell viability assay, the cells were harvested, suspended at a density of 350,000 cells/mL in DMEM, and 100 μL of each sample was plated in each well of a 96-well CellBIND polystyrene microplate (Corning, USA). […] Cell viability was determined using the MTT (3-[4,5-dimethylthiazol-2-yl]-2,5-diphenyltetrazolium bromide) toxicity assay. […] Ten microliters of 5 mg/mL of MTT in PBS was added to each well, and then, after incubation for 4 h, the medium was removed and the MTT crystals were dissolved in 100 μL of 90% isopropanol, 0.5% SDS, and 40 mM HCl, and their absorption at 570 nm was measured. Cell viability was calculated by dividing the absorbance of the wells containing peptide samples by that of the wells without any added peptide. […]

[7] = system: 109QmHtt; test: Western blot of RIPA-soluble and -insoluble fractions of Neuro2a lysates; type: cell-based; conditions: all groups
Description: as §2
For further characterization, Neuro2a lysates were separated into the RIPA-soluble (sol) and insoluble (ins) fractions ([…]). 8R10Q peptide decreased the level of mHtt in both the soluble and insoluble fractions as compared with water, 8R, or the scrambled (s8R10Q) control (FIG. 4, panel D). […]

Compound	Solubility (DMEM/10% FBS) [1]	solubility in water or culture medium [1]	average size of the aggregates [3] [μm^2]	further results
H-RRRRRRRRWDQQQQQQQQQQQQQQQ-NH2 [Peptide 8R15Q, NH2-(R)8-W-D-(Q)15-CONH2]	aggregated	partially soluble	0.2	change in retention time and amount during HPLC analysis [2]: time-dependent decrease in the retention time and amount; aggregated 109QmHtt by filter trap assay ([4]; 20 μM peptide added at 8 hours (T1) or 8 plus 24 hours (T1+T2) after transfection, vs water or 8R): significantly reduced; aggregated 109QmHtt by filter trap assay ([4]; peptide added at 24 hours alone): no obvious effects
H-RRRRRRRRWDQQQQQ-NH2 [Peptide 8R5Q, NH2-(R)8-W-D-(Q)5-CONH2]	Soluble	highly soluble	–	–
H-RRRRRRRRWD-NH2 [Peptide 8R, NH2-(R)8-W-D-CONH2, reference compound]	Soluble	–	3.3	RA-induced neurite outgrowth [5]: rescued the cells from this toxicity to some extent
H-RQQRRQQDQRQWQRQRQQRR-NH2 [s8R10Q, reference compound]	Soluble	–	1.7	–
CC[C@H](C)[C@H](NC(=O)[C@H](C)NC(=O)CNC(=O)[C@H](CCCCN)NC(=O)[C@H](CC(N)=O)NC(=O)[C@H](CO)NC(=O)CNC(=O)[C@@H](CCCNC(=N)N)NC(=O)[C@@H](CCCNC(=N)N)NC(=O)[C@@H](CCCNC(=N)N)NC(=O)[C@@H](CCCNC(=N)N)NC(=O)[C@@H](CCCNC(=N)N)NC(=O)[C@@H](CCCNC(=N)N)NC(=O)[C@@H](CCCNC(=N)N)NC(=O)[C@H](N)CCCNC(=N)N)C(=O)N[C@H](C(=O)NCC(=O)N[C@@H](CC(C)C)C(=O)N[C@@H](CCSC)C(N)=O)[C@@H](C)CC [^DR8-Aβ(25-35)] (H-[dR][dR][dR][dR][dR][dR][dR][dR]GSNKGAIIGLM-NH2; N-terminus assumed)	–	–	–	viability of Neuro2a cells treated with peptide alone [6]: no detectable toxicity
H-RRRRRRRRWDQQQQQQQQQQQQQQQQQQQQ-NH2 [Peptide 8R20Q, NH2-(R)8-W-D-(Q)20-CONH2]	aggregated	insoluble	–	change in retention time and amount during HPLC analysis [2]: time-dependent decrease in the retention time and amount
CC(C)C[C@@H](C=O)NC(=O)[C@H](CC(C)C)NC(=O)[C@H](CC(C)C)NC(=O)OCc1ccccc1 [MG132, reference compound] (Cbz-Leu-Leu-Leu-aldehyde)	–	–	–	level of mHtt after MG132 treatment [7]: increased
TAMRA-NH-RQQRRQQDQRQWQRQRQQRR-CONH2 ({TAMRA}-RQQRRQQDQRQWQRQRQQRR-NH2) [TAMRA-s8R10Q, reference compound]	Soluble	–	–	–
TAMRA-NH-(R)8-W-D-CONH2 [TAMRA-8RWD, reference compound]	Soluble	–	–	–
RRRRRRRRGSNKGAIIGLM-NH2 [R8-Aβ(25-35)]	–	–	–	viability of Neuro2a cells treated with peptide alone [6]: no detectable toxicity
